molecular target: T1, human GPR119 (Homo sapiens, UniProt Q8TDV5); test: AlphaScreen cAMP assay in Min-6/hGPR119 cells (activation of GPR119, intracellular cAMP); assay type: cell-based; conditions: MIN6 cells stably transfected with human GPR119; cAMP by AlphaScreen after 45 minutes incubation at room temperature
T1 construct: expression vector for human GPR119 cDNA (Acc. No. NP_848566); expressed in transfected cells
T1 sequence (Q8TDV5 1-335): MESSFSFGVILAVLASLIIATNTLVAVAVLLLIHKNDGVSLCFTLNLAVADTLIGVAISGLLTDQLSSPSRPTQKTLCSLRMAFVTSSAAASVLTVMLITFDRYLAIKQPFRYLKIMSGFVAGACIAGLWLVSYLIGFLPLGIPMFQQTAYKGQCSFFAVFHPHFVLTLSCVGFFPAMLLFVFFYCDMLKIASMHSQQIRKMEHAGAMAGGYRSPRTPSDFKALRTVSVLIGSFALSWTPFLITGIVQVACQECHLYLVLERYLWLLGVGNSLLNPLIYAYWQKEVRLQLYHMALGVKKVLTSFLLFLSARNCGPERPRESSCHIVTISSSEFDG
Procedure: The compounds of formula I according to the invention modulate the activity of the G-protein-coupled receptor GPR119. The effect of the compounds on the activation of GPR119 and on the stimulation of intracellular cAMP concentration is determined using the AlphaScreen cAMP Assay Kit (Cat.No.#6760625R) made by PerkinElmer.
MIN6 cells [Miyazaki J et al. Endocrinology. 1990 July; 127(1):126-32] are stably transfected with an expression vector for human GPR119 cDNA (Acc. No. NP_848566). Min-6/hGPR119 cells are cultured in DMEM, 10% FBS, 50 μM β-mercaptoethanol, 0.3 mg/mL Geniticin, 2 mM GlutaMAX at 37° C. 5% CO2. For the assay, the cells are seeded in Optiplates (white, 384-well, 160W— barcoded, TC, sterile with lid, Cat.No.#6007688 (Perkin Elmer); 10000 cells/well; 50 μl). The plates covered with lids are then incubated for 24 hours at 37° C./5% CO2. After the medium is aspirated from the wells completely, 10 μl of the test compound are added, the compounds are diluted using stimulating buffer (140 mM NaCl, 3.6 mM KCl, 0.5 mM NaH2PO4, 0.5 mM MgSO4, 1.5 mM CaCl2, 10 mM Hepes, 5 mM NaHCO3; pH 7.4. 0.5 mM IBMX and 0.1% BSA, the final DMSO concentration is 1%). After 45 minutes incubation at room temperature (approx. 20° C.), the cAMP concentrations are determined using the AlphaScreen cAMP Assay Kit (Cat.No.#6760625R from PerkinElmer).

SMILES	EC50 [µM]
CC(C)(C)OC(=O)N1CCC(C2Cc3cc(-c4ccc(C#N)cc4)ncc3O2)CC1 (stereo not drawn) [Example 46, 4-[5-(4-Cyano-phenyl)-2,3-dihydro-furo[2,3-c]pyridin-2-yl]-piperidine-1-carboxylic acid tert-butyl ester]	0.015
CC(C)(C)OC(=O)N1CCC(C2Cc3cc(-c4ccc(CS(C)(=O)=O)cn4)ccc3O2)CC1 (stereo not drawn) [Example 48, 4-[5-(5-Methanesulfonylmethyl-pyridin-2-yl)-2,3-dihydro-benzofuran-2-yl]-piperidine-1-carboxylic acid tert-butyl ester]	0.053
CC(C)(C)OC(=O)N1CCC(C2Cc3cc(-c4ccc(CS(C)(=O)=O)cc4)ncc3O2)CC1 (stereo not drawn) [Example 49, 4-[5-(4-Methanesulfonylmethyl-phenyl)-2,3-dihydro-furo[2,3-c]pyridin-2-yl]-piperidine-1-carboxylic acid tert-butyl ester]	0.022
CC(C)(C)OC(=O)N1CCC(C2Cc3cc(-c4ccnnc4)ccc3O2)CC1 (stereo not drawn) [Example 50, 4-(5-Pyridazin-4-yl-2,3-dihydro-benzofuran-2-yl)-piperidine-1-carboxylic acid tert-butyl ester]	0.161
CC(C)(C)OC(=O)N1CCC(C2Cc3cc(-c4ccncc4C#N)ncc3O2)CC1 (stereo not drawn) [Example 59, 4-[5-(3-Cyano-pyridin-4-yl)-2,3-dihydro-furo[2,3-c]pyridin-2-yl]-piperidine-1-carboxylic acid tert-butyl ester]	0.119
CC(C)(C)OC(=O)N1CCC(C2Cc3cc(-n4ccncc4=O)ncc3O2)CC1 (stereo not drawn) [Example 60, 4-[5-(2-Oxo-2H-pyrazin-1-yl)-2,3-dihydro-furo[2,3-c]pyridin-2-yl]-piperidine-1-carboxylic acid tert-butyl ester]	0.522
CS(=O)(=O)Cc1ccc(-c2cc3c(cn2)OC(C2CCN(C(=O)OC4CCC4)CC2)C3)cc1 (stereo not drawn) [Example 61, 4-[5-(4-Methanesulfonylmethyl-phenyl)-2,3-dihydro-furo[2,3-c]pyridin-2-yl]-piperidine-1-carboxylic acid cyclobutyl ester]	0.031
CC(C)OC(=O)N1CCC(C2Cc3cc(-c4ccc(CS(C)(=O)=O)cc4)ncc3O2)CC1 (stereo not drawn) [Example 62, 4-[5-(4-Methanesulfonylmethyl-phenyl)-2,3-dihydro-furo[2,3-c]pyridin-2-yl]-piperidine-1-carboxylic acid isopropyl ester]	0.036
CC(C)OC(=O)N1CCC(C2Cc3cc(-c4ccc(S(C)(=O)=O)cc4)ncc3O2)CC1 (stereo not drawn) [Example 63, 4-[5-(4-Methanesulfonyl-phenyl)-2,3-dihydro-furo[2,3-c]pyridin-2-yl]-piperidine-1-carboxylic acid isopropyl ester]	0.018
CC1(OC(=O)N2CCC(C3Cc4cc(-c5ccc(CS(C)(=O)=O)cc5)ncc4O3)CC2)CC1 (stereo not drawn) [Example 64, 4-[5-(4-Methanesulfonylmethyl-phenyl)-2,3-dihydro-furo[2,3-c]pyridin-2-yl]-piperidine-1-carboxylic acid 1-methyl-cyclopropyl ester]	0.051
CC(C)S(=O)(=O)c1ccc(-c2cc3c(cn2)OC(C2CCN(C(=O)OC(C)(C)C)CC2)C3)cc1 (stereo not drawn) [Example 65, 4-{5-[4-(Propane-2-sulfonyl)-phenyl]-2,3-dihydro-furo[2,3c]pyridin-2-yl}-piperidine-1-carboxylic acid tert-butyl ester]	0.026
CCS(=O)(=O)c1ccc(-c2cc3c(cn2)OC(C2CCN(C(=O)OC(C)(C)C)CC2)C3)cc1 (stereo not drawn) [Example 66, 4-[5-(4-Ethanesulfonyl-phenyl)-2,3-dihydro-furo[2,3-c]pyridin-2-yl]-piperidine-1-carboxylic acid tert-butyl ester]	0.012
CC(=O)Nc1ccc(-c2cc3c(cn2)OC(C2CCN(C(=O)OC(C)(C)C)CC2)C3)cc1 (stereo not drawn) [Example 67, 4-[5-(4-Acetylamino-phenyl)-2,3-dihydro-furo[2,3-c]pyridin-2-yl]-piperidine-1-carboxylic acid tert-butyl ester]	0.013

The next lines start with the values.

EC50 [µM]	SMILES
0.03	CC(C)(C)OC(=O)N1CCC(C2Cc3cc(-c4ccc(C#N)nc4)ncc3O2)CC1 (stereo not drawn) [Example 44, 4-[5-(6-Cyano-pyridin-3-yl)-2,3-dihydro-furo[2,3-c]pyridin-2-yl]-piperidine-1-carboxylic acid tert-butyl ester]
0.41	CC(C)(C)OC(=O)N1CCC(C2Cc3cc(-c4cccnc4)ncc3O2)CC1 (stereo not drawn) [Example 45, 4-(5-Pyridin-3-yl-2,3-dihydro-furo[2,3-c]pyridin-2-yl)-piperidine-1-carboxylic acid tert-butyl ester]
0.008	CC(C)(C)OC(=O)N1CCC(C2Cc3cc(-c4ccnc(F)c4)ncc3O2)CC1 (stereo not drawn) [Example 47, 4-[5-(2-Fluoro-pyridin-4-yl)-2,3-dihydro-furo[2,3-c]pyridin-2-yl]-piperidine-1-carboxylic acid tert-butyl ester]
0.01	CC(C)(C)OC(=O)N1CCC(C2Cc3cc(-c4ccncc4F)ncc3O2)CC1 (stereo not drawn) [Example 51, 4-[5-(3-Fluoro-pyridin-4-yl)-2,3-dihydro-furo[2,3-c]pyridin-2-yl]-piperidine-1-carboxylic acid tert-butyl ester]
0.049	Cc1cc(-c2cc3c(cn2)OC(C2CCN(C(=O)OC(C)(C)C)CC2)C3)ccn1 (stereo not drawn) [Example 52, 4-[5-(2-Methyl-pyridin-4-yl)-2,3-dihydro-furo[2,3-c]pyridin-2-yl]-piperidine-1-carboxylic acid tert-butyl ester]
0.122	COc1cc(-c2cc3c(cn2)OC(C2CCN(C(=O)OC(C)(C)C)CC2)C3)ccn1 (stereo not drawn) [Example 53, 4-[5-(2-Methoxy-pyridin-4-yl)-2,3-dihydro-furo[2,3-c]pyridin-2-yl]-piperidine-1-carboxylic acid tert-butyl ester]
0.265	CC(C)(C)OC(=O)N1CCC(C2Cc3cc(-c4ccnnc4)ncc3O2)CC1 (stereo not drawn) [Example 54, 4-(5-Pyridazin-4-yl-2,3-dihydro-furo[2,3-c]pyridin-2-yl)-piperidine-1-carboxylic acid tert-butyl ester]
0.016	CC(C)(C)OC(=O)N1CCC(C2Cc3cc(-c4ccnc(C#N)c4)ncc3O2)CC1 (stereo not drawn) [Example 55, 4-[5-(2-Cyano-pyridin-4-yl)-2,3-dihydro-furo[2,3-c]pyridin-2-yl]-piperidine-1-carboxylic acid tert-butyl ester]
0.222	CC(C)(C)OC(=O)N1CCC(C2Cc3cc(-c4ccnc(C(F)(F)F)c4)ncc3O2)CC1 (stereo not drawn) [Example 56, 4-[5-(2-Trifluoromethyl-pyridin-4-yl)-2,3-dihydro-furo[2,3-c]pyridin-2-yl]-piperidine-1-carboxylic acid tert-butyl ester]
0.685	Cn1ccc(-c2cc3c(cn2)OC(C2CCN(C(=O)OC(C)(C)C)CC2)C3)cc1=O (stereo not drawn) [Example 57, 4-[5-(1-Methyl-2-oxo-1,2-dihydro-pyridin-4-yl)-2,3-dihydro-furo[2,3-c]pyridin-2-yl]-piperidine-1-carboxylic acid tert-butyl ester]
0.133	Cn1cc(-c2cc3c(cn2)OC(C2CCN(C(=O)OC(C)(C)C)CC2)C3)ccc1=O (stereo not drawn) [Example 58, 4-[5-(1-Methyl-6-oxo-1,6-dihydro-pyridin-3-yl)-2,3-dihydro-furo[2,3-c]pyridin-2-yl]-piperidine-1-carboxylic acid tert-butyl ester]
